Measured values reported in patent publication US11174268B2, “Benzenesulfonamide compouds and their use as therapeutic agents” (Xenon Pharmaceuticals Inc., priority 2016, dated 2021).
Structures can show the parent of a compound that is named as a salt. Where two headings read alike, the source gives them in different places.

Experiments:
NaV1.1 = NaV1.1 (Homo sapiens (Human), UniProt P35498); assay: Sodium Influx Assay (Flux), NaV1.1; type: cell-based; conditions: Trex HEK293 cells, ANG2 dye, inactivated state;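 further: channels co-expressed with human β1 subunit and held open by modulators, cells exposed to compounds for one hour at room temperature, IC50 from percent inhibition of influx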
NaV1.6 = NaV1.6 (Homo sapiens (Human), UniProt Q9UQD0); assay: Sodium Influx Assay (Flux), NaV1.6; type: cell-based; conditions: Trex HEK293 cells, ANG2 dye, inactivated state;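 further: Tetracycline-induced cells, compounds applied for one hour at room temperature with modulators holding channels open, IC50 from percent inhibition of sodium influx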
NaV1.5 = NaV1.5 (Homo sapiens (Human), UniProt Q14524); assay: Sodium Influx Assay (Flux), NaV1.5
Chain of NaV1.5 (Q14524 other isoform, or with tags, fused parts or gaps): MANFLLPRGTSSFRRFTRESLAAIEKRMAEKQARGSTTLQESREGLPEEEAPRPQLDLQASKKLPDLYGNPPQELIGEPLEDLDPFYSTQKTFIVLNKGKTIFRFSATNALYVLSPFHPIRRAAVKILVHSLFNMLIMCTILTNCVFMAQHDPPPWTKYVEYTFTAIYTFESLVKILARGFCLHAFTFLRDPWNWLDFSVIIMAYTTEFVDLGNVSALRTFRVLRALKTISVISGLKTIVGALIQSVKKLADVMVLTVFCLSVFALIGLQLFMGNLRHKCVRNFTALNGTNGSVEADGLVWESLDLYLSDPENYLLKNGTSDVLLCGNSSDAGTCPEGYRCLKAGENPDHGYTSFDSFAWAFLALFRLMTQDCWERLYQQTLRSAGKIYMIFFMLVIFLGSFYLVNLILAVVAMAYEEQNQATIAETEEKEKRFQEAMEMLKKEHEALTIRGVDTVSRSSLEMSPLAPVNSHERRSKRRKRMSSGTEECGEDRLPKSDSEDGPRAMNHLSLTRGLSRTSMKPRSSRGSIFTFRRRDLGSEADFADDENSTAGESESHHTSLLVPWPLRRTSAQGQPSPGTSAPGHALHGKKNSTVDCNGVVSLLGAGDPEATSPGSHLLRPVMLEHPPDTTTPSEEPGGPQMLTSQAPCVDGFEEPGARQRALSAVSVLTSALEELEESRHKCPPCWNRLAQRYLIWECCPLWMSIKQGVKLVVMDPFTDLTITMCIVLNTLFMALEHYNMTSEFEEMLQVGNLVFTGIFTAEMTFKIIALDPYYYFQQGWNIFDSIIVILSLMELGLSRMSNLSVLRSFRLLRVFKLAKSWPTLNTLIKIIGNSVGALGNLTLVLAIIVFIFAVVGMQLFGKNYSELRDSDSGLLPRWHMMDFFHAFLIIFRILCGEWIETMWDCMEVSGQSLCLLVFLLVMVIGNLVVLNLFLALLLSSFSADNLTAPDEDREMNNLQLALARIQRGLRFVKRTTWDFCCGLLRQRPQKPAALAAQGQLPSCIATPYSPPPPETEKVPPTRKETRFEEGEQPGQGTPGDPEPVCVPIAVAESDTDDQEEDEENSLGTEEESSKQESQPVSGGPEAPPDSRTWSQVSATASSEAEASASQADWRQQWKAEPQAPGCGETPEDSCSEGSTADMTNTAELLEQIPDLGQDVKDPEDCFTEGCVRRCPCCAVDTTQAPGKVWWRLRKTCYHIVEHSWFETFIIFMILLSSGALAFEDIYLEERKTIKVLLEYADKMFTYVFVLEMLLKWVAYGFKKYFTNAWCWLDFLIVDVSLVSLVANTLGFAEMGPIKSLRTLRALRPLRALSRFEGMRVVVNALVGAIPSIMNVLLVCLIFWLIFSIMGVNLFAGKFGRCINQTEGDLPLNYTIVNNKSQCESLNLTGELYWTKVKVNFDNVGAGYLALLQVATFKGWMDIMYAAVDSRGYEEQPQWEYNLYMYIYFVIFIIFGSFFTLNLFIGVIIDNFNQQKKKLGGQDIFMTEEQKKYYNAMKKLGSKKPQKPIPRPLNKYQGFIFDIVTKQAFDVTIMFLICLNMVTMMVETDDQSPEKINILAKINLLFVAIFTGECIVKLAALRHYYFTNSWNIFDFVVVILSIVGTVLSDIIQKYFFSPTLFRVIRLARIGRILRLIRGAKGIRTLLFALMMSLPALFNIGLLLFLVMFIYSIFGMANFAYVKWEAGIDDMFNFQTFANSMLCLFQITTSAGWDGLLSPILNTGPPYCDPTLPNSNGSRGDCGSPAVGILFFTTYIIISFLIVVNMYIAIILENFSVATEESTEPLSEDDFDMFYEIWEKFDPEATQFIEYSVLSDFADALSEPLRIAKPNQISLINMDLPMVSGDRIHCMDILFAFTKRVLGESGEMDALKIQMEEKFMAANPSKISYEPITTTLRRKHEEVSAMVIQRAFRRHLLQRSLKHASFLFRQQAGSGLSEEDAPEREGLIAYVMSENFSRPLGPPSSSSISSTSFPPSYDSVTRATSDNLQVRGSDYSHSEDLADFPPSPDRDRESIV

[1] = read-out: Flux NaV1.5 IC50, Trex HEK293 cells, ANG2 dye, inactivated state

IC50 (NaV1.1) [µM]	IC50 (NaV1.6) [µM]	Molecule	IC50 (NaV1.5; [1]) [µM]	IC50 (NaV1.5) [µM]
14.3	0.266	CC1(F)CN(Cc2cccc(F)c2CNc2cc(F)c(S(=O)(=O)Nc3ccon3)c(F)c2)C1 [Example 337, 2,6-difluoro-4-((2-fluoro-6-((3-fluoro-3-methylazetidin-1-yl)methyl)benzyl)amino)-N-(isoxazol-3-yl)benzenesulfonamide formate]	30	
0.999	1.66	O=S(=O)(Nc1nccs1)c1cc(Cl)c(N[C@H]2CCCc3ccccc32)cc1F [Example 46, (S)-5-chloro-2-fluoro-4-((1,2,3,4-tetrahydronaphthalen-1-yl)amino)-N-(thiazol-2-yl)benzenesulfonamide]	7.04	
1.94	0.373	O=S(=O)(Nc1nccs1)c1ccc(NC(c2ccccc2)C2CC2)c(Cl)c1 (stereo not drawn) [Example 99, 3-chloro-4-((cyclopropyl(phenyl)methyl)amino)-N-(thiazol-2-yl)benzenesulfonamide]	9.27	
5.71	1.62	CC[C@H](Oc1cc(F)c(S(=O)(=O)Nc2cscn2)cc1Cl)c1ccccc1F [Example 338, (S)-5-chloro-2-fluoro-4-(1-(2-fluorophenyl)propoxy)-N-(thiazol-4-yl)benzenesulfonamide]	2.65	
27	1.65	C[C@H](Nc1ccc(S(=O)(=O)Nc2cscn2)cc1C#N)c1ccccc1F [Example 239, (S)-3-cyano-4-((1-(2-fluorophenyl)ethyl)amino)-N-(thiazol-4-yl)benzenesulfonamide]	28.9	
3.38	1.76	O=S(=O)(Nc1cscn1)c1c(F)cc(NCc2c(CN3CCC3)cccc2C2CC2)cc1F [Example 211, 4-((2-(azetidin-1-ylmethyl)-6-cyclopropylbenzyl)amino)-2,6-difluoro-N-(thiazol-4-yl)benzenesulfonamide 2,2,2-trifluoroacetate]	19.2	
3.76	3.38	C[C@H](Nc1cc(F)c(S(=O)(=O)Nc2cscn2)cc1Cl)c1cccc(Cl)c1F [Example 6, (S)-5-chloro-4-((1-(3-chloro-2-fluorophenyl)ethyl)amino)-2-fluoro-N-(thiazol-4-yl)benzenesulfonamide]	5.52	
30	3.69	O=S(=O)(Nc1ccon1)c1cc(Cl)c(NCc2ccccc2CN2CCC2)cc1F [Example 258, 4-((2-(azetidin-1-ylmethyl)benzyl)amino)-5-chloro-2-fluoro-N-(isoxazol-3-yl)benzenesulfonamide]	30	
0.684	3.61	C[C@@H](O)c1cccc(F)c1CNc1cc(F)c(S(=O)(=O)Nc2cscn2)c(F)c1 [Example 299, (R)-2,6-difluoro-4-((2-fluoro-6-(1-hydroxyethyl)benzyl)amino)-N-(thiazol-4-yl)benzenesulfonamide]	21.6	
8.37	3.35	O=S(=O)(Nc1cscn1)c1cc(Cl)c(NC2(c3ccccc3)CCC2)cc1F [Example 18, 5-chloro-2-fluoro-4-((1-phenylcyclobutyl)amino)-N-(thiazol-4-yl)benzenesulfonamide]	11.9	
0.667	0.216	O=S(=O)(Nc1nccs1)c1cc(Cl)c(NC(c2ccccc2)C2CC2)cc1F (stereo not drawn) [Example 100, 5-chloro-4-((cyclopropyl(phenyl)methyl)amino)-2-fluoro-N-(thiazol-2-yl)benzenesulfonamide]	6.42	
30	30	O=S(=O)(Nc1nccs1)c1cc(Cl)c(N[C@@H](CN2CCCC2)c2ccccc2)cc1F [Example 71, (R)-5-chloro-2-fluoro-4-((1-phenyl-2-(pyrrolidin-1-yl)ethyl)amino)-N-(thiazol-2-yl)benzenesulfonamide]	30	
5.85	4.09	C[C@H](Nc1ccc(S(=O)(=O)Nc2cscn2)cc1Cl)c1ccccc1 [Example 24, (S)-3-chloro-4-((1-phenylethyl)amino)-N-(thiazol-4-yl)benzenesulfonamide]	8.32	
9.89	0.593	C[C@H](Nc1cc(F)c(S(=O)(=O)Nc2ccncn2)c(F)c1)c1cc(F)ccc1F [Example 208, (S)-4-((1-(2,5-difluorophenyl)ethyl)amino)-2,6-difluoro-N-(pyrimidin-4-yl)benzenesulfonamide 2,2,2-trifluoroacetate]	30	
9.67	0.049	O=S(=O)(Nc1cscn1)c1c(F)cc(NCc2c(F)cccc2CN2CCC2)cc1F [Example 302, 4-((2-(azetidin-1-ylmethyl)-6-fluorobenzyl)amino)-2,6-difluoro-N-(thiazol-4-yl)benzenesulfonamide 2,2,2-trifluoroacetate]	23.9	
3.75	0.014	Cc1c(NCc2c(Cl)ccc(F)c2CN2CCC2)cc(F)c(S(=O)(=O)Nc2cscn2)c1F [Example 313, 4-((2-(azetidin-1-ylmethyl)-6-chloro-3-fluorobenzyl)amino)-2,6-difluoro-3-methyl-N-(thiazol-4-yl)benzenesulfonamide 2,2,2-trifluoroacetate]	14.3	
10.3	0.16	CCOC1(C)CN(Cc2cccc(F)c2CNc2cc(F)c(S(=O)(=O)Nc3cscn3)c(F)c2)C1 [Example 152, 4-((2-((3-ethoxy-3-methylazetidin-1-yl)methyl)-6-fluorobenzyl)amino)-2,6-difluoro-N-(thiazol-4-yl)benzenesulfonamide formate]	19	
16	5.02	C[C@H](Nc1cc(F)c(S(=O)(=O)Nc2nccs2)cc1Cl)c1cccc2ccccc12 [Example 2, (S)-5-chloro-2-fluoro-4-((1-(naphthalen-1-yl)ethyl)amino)-N-(thiazol-2-yl)benzenesulfonamide]	8.25	
28.9	0.146	O=S(=O)(Nc1cscn1)c1cc(Cl)c(NCc2ccccc2CCN2CCC2)cc1F [Example 261, 4-((2-(2-(azetidin-1-yl)ethyl)benzyl)amino)-5-chloro-2-fluoro-N-(thiazol-4-yl)benzenesulfonamide formate]	26.3	
30	4.28	Cc1cc(NS(=O)(=O)c2cc(Cl)c(N[C@@H](C)c3ccccc3Cl)cc2F)ncn1 [Example 244, (S)-5-chloro-4-((1-(2-chlorophenyl)ethyl)amino)-2-fluoro-N-(6-methylpyrimidin-4-yl)benzenesulfonamide]	22.2	
3.08	0.787	C[C@H](Nc1cc(F)c(S(=O)(=O)Nc2cscn2)c(F)c1)c1cc(C(F)F)ccc1F [Example 233, (S)-4-((1-(5-(difluoromethyl)-2-fluorophenyl)ethyl)amino)-2,6-difluoro-N-(thiazol-4-yl)benzenesulfonamide]	12.4	
1.39	0.352	CCC[C@H](Nc1cc(F)c(S(=O)(=O)Nc2nccs2)cc1Cl)c1ccccc1 [Example 111, (S)-5-chloro-2-fluoro-4-((1-phenylbutyl)amino)-N-(thiazol-2-yl)benzenesulfonamide]	8.33	
21.4	0.431	COC1CN(Cc2cccc(F)c2CNc2cc(F)c(S(=O)(=O)Nc3cscn3)cc2Cl)C1 [Example 248, 5-chloro-2-fluoro-4-((2-fluoro-6-((3-methoxyazetidin-1-yl)methyl)benzyl)amino)-N-(thiazol-4-yl)benzenesulfonamide 2,2,2-trifluoroacetate]	26.5	
5.4	1.52	C[C@H](Nc1cc(F)c(S(=O)(=O)Nc2cccc(F)n2)cc1Cl)c1ccccc1Cl [Example 23, (S)-5-chloro-4-((1-(2-chlorophenyl)ethyl)amino)-2-fluoro-N-(6-fluoropyridin-2-yl)benzenesulfonamide]	4.09	

Molecule	IC50 (NaV1.1) [µM]	IC50 (NaV1.6) [µM]	IC50 (NaV1.5; [1]) [µM]	IC50 (NaV1.5) [µM]
O=S(=O)(Nc1cscn1)c1c(F)cc(NCc2c(F)cccc2CN2CCC3(CCO3)C2)cc1F (stereo not drawn) [Example 155, 4-((2-((1-oxa-6-azaspiro[3.4]octan-6-yl)methyl)-6-fluorobenzyl)amino)-2,6-difluoro-N-(thiazol-4-yl)benzenesulfonamide formate]	30	0.25	30	
O=S(=O)(Nc1cscn1)c1c(F)cc(NCc2c(F)cccc2CN2CC3(C2)CC(F)(F)C3)cc1F [Example 160, 4-((2-((6,6-difluoro-2-azaspiro[3.3]heptan-2-yl)methyl)-6-fluorobenzyl)amino)-2,6-difluoro-N-(thiazol-4-yl)benzenesulfonamide formate]	6.51	0.064		23
O=S(=O)(Nc1cscn1)c1c(F)cc(NCc2c(F)cccc2CN2CCC23COC3)cc1F [Example 157, 4-((2-((6-oxa-1-azaspiro[3.3]heptan-1-yl)methyl)-6-fluorobenzyl)amino)-2,6-difluoro-N-(thiazol-4-yl)benzenesulfonamide formate]	30	2.36	30	
(S)-5-chloro-2-fluoro-4-((1-(isoquinolin-8-yl)ethyl)amino)-N-(thiazol-2-yl)benzenesulfonamide [Example 12]	30	1.98	30	
O=S(=O)(Nc1cscn1)c1c(F)cc(NCc2c(F)cccc2CN2CCC3(CCC3)C2)cc1F [Example 159, 4-((2-((6-azaspiro[3.4]octan-6-yl)methyl)-6-fluorobenzyl)amino)-2,6-difluoro-N-(thiazol-4-yl)benzenesulfonamide formate]	9.21	0.153		11.8
